The values below come from ChEMBL document CHEMBL1201862, “PubChem BioAssay data set” (2004).

Active and inactive are the calls of the source.

The target in test [1] is Alkaline phosphatase, placental type (Homo sapiens, UniProt P05187). The experiment in a line: human placental alkaline phosphatase inhibition – biochemical, luminescence, confirmation (AID 1512). Format: functional.
The target in test [2] is T1, Alkaline phosphatase, tissue-nonspecific isozyme (Homo sapiens, UniProt P05186).
T1 sequence (P05186 whole entry): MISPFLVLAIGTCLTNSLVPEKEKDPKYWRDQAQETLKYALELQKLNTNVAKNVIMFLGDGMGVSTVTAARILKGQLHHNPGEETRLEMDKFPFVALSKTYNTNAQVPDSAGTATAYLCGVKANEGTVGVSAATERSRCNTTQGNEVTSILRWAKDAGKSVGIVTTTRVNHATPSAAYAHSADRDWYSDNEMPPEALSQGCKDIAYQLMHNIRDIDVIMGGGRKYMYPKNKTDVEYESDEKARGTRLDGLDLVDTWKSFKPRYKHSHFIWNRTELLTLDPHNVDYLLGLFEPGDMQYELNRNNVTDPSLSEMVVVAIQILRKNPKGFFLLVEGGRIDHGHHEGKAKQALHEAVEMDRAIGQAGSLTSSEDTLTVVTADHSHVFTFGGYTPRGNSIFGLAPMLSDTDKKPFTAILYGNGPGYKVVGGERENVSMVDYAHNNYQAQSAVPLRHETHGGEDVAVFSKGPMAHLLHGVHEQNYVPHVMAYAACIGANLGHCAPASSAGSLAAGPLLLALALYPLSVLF
The experiment in a line: potency against alkaline phosphatase TNAP – biochemical, luminescent, dose response, SAR follow-up (AID 1056).

Test [3] has as its target Glyceraldehyde-3-phosphate dehydrogenase (Homo sapiens, UniProt P04406).
The target of test [4] is DNA dC->dU-editing enzyme APOBEC-3G (Homo sapiens, UniProt Q9HC16). The experiment in a line: Dose Response confirmation of small molecule APOBEC3G DNA Deaminase Inhibitors via a fluorescence-based single-stranded DNA deaminase assay. [Related pubchem assays (depositor defined):AID493012, AID493028]. The format is functional.
The target of test [5] is Eukaryotic translation initiation factor 4E (Mus musculus, UniProt P63073). The experiment in a line: blockers of eIF4G binding by eIF4E – biochemical, TR-FRET, dose response (AID 855).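 Also: potency for disrupting eIF4E binding to eIF4GI seen as loss of FRET.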 Format: functional. For orientation: In TR-FRET formats the signal depends on donor and acceptor labels being close together.
In test [6] the test system is Streptococcus sp. 'group A'. The experiment in a line: Streptococcus pyogenes SK(-)GAS viability under kanamycin – luminescence, BacTiterGlo, confirmation, counter-screen for streptokinase expression inhibitor project, dose response (AID 1900). The format is functional, organism-based. On the technique in general: Counterscreens check selectivity or assay interference.

Test [7] deals with HEK293. The test is described as follows: NOD2 signaling inhibitors in MDP-stimulated cells, cell-based, uHTS, luminescence (AID 2001). Format: functional. The note with it: Homo sapiens.
Test [8] has as its target T2, Protein skinhead-1 (Caenorhabditis elegans, UniProt P34707).
T2 sequence (P34707 whole entry): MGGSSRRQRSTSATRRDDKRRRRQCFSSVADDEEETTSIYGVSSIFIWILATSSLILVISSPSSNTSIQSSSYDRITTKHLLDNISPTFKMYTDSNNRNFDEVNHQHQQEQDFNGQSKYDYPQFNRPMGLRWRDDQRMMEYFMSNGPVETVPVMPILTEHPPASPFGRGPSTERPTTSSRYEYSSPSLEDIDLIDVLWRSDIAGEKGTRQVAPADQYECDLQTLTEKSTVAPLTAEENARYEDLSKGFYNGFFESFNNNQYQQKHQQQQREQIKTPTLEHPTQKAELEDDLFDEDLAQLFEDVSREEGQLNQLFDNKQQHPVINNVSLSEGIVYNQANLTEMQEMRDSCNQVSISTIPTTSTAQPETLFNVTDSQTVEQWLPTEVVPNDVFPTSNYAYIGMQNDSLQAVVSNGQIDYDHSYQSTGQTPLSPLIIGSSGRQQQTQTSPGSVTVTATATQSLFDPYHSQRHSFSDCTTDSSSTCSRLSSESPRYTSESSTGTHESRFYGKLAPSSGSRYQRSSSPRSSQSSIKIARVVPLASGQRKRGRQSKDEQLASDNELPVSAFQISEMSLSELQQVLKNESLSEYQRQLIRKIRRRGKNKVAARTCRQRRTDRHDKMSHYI
The format is functional.

Test [9] addresses T3, Streptokinase A (Streptococcus pyogenes serotype M1, UniProt P10520).
T3 sequence (P10520 whole entry): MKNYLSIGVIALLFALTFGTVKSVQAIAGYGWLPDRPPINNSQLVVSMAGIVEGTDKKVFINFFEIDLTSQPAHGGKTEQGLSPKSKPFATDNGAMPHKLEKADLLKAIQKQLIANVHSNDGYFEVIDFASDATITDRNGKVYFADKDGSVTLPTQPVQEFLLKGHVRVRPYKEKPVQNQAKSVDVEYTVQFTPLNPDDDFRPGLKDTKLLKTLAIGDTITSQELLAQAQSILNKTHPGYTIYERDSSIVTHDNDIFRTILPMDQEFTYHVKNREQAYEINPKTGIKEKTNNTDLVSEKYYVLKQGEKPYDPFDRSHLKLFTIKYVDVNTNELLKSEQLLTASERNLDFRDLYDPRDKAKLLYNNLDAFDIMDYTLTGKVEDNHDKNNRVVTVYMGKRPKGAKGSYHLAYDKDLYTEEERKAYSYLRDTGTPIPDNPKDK
The test is described as follows: viability-normalized secreted streptokinase activity reduction – plasminogen activation absorbance, OD405, dose response (AID 1914).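 Also: secreted streptokinase activity via plasminogen activation per viability signal from cell pellet.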 Format: functional, Streptococcus pyogenes M1 GAS.

Test [10] has as its system HEK293. The experiment in a line: cells. Format: functional, cell-based. Particulars: Homo sapiens.
For test [11], the system named is HEK293. The experiment in a line: cells. The format is functional, cell-based. The note with it: Homo sapiens. The source holds these as a separate data set.
Test [12] concerns Streptococcus. The experiment in a line: GAS UMAA2166 growth inhibition – luminescence, BacTiterGlo, counter-screen for streptokinase expression inhibitor project, dose response (AID 1915).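 Also: potency for reduction of bacterial viability or growth.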 Format: functional, organism-based.
Test [13] concerns HEK293. The experiment in a line: cells. The note with it: Homo sapiens. The format is functional, cell-based. This is another data set of the same source.
For test [14], the target named is Nucleotide-binding oligomerization domain-containing protein 2 (Homo sapiens, UniProt Q9HC29). The test is described as follows: inhibition of NOD2-driven NF-kB reporter – cell-based, luminescence, uHTS, HEK293 (AID 1566). Format: functional.
Test [15] deals with HEK293. The experiment in a line: inhibition of NOD1-driven NF-kB reporter – cell-based, luminescence, uHTS, primary screen (AID 1578). The format is functional. Particulars: Homo sapiens.
Test [16] deals with X-box-binding protein 1 (Homo sapiens, UniProt P17861). The format is functional, Cricetulus griseus.
For test [17], the target named is Voltage-dependent T-type calcium channel subunit alpha-1H (Homo sapiens, UniProt O95180). The format is functional.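 Also: channel activity triggered by adding a high calcium stimulation buffer.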
The target in test [18] is DNA damage-inducible transcript 3 protein (Mus musculus, UniProt P35639). The format is functional, Cricetulus griseus.
The nature of test [19]: Luminescence Cell-Based Dose Response HTS to Identify Activators of Luciferase Translation or Activity in H4 […] Cells. [Related pubchem assays: 1829 (Project Summary), 1814 (Primary HTS)]. Format: functional.
In test [20] the target is G-protein coupled receptor 55 (Homo sapiens, UniProt Q9Y2T6). The experiment in a line: selective activators of receptor GPR55 – imaging, U2OS cells, beta-arrestin-GFP redistribution, primary screen (AID 1961). The format is functional.
In test [21] the test system is H4. The test is described as follows: Luminescence Cell-Based Dose Response HTS to Identify Activators of 5'UTR Stem-Loop Driven Prion Protein mRNA Translation in H4 Neuroglioblastoma Cells. [Related pubchem assays: 1829 (Project Summary), 1814 (Primary HTS)]. The format is functional. The note with it: Homo sapiens.
A short description of test [22]: Luminescence Cell-Based Dose Confirmation HTS to Identify Activators of 5'UTR Stem-Loop Driven Alpha-Synuclein mRNA Translation in H4 Neuroglioblastoma Cells. [Related pubchem assays: 1829 (Project Summary), 1814 (Primary HTS)]. Format: functional.
For test [23], the target named is Intestinal-type alkaline phosphatase (Homo sapiens, UniProt P09923). The test is described as follows: Dose Response confirmation of uHTS hits from a small molecule inhibitors of human intestinal alkaline phosphatase via a luminescent assay. [Related pubchem assays (depositor defined):AID2544, AID2574]. The format is functional.
For test [24], the target named is T4, Long-chain-fatty-acid--AMP ligase FadD28 (Mycobacterium tuberculosis, UniProt P9WQ59).
T4 sequence (P9WQ59 whole entry): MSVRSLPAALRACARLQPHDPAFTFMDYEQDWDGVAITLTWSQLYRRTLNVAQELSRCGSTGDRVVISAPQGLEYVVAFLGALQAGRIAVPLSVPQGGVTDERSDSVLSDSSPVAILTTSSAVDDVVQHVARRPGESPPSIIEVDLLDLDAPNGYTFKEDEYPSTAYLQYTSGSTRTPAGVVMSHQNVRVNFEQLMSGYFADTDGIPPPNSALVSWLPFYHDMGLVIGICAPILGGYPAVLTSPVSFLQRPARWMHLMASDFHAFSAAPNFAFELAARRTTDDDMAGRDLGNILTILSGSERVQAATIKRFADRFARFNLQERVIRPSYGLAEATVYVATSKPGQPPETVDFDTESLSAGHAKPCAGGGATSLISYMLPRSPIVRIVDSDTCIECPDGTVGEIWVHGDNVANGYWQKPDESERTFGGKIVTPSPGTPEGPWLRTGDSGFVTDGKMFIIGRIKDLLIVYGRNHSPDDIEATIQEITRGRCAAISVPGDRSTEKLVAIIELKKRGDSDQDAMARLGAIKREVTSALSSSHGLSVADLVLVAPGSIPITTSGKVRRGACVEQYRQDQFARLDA
The experiment in a line: Fluorescence polarization aasay to screen for inhibitors that compete for the binding of FadD28 to a bisubstrate Measured in Biochemical System Using Plate Reader - 2147-01_Inhibitor_Dose_CherryPick_Activity. Format: functional, Mycobacterium tuberculosis H37Rv. (Polarisation of emitted light reports the rotation of a fluorescent probe.)

Test [25] concerns the target Ion channel NompC (Danio rerio, UniProt Q7T1G6). The experiment in a line: Dose response cell-based high-throughput screening assay for agonists of the transient receptor potential channel N1 (TRPN1). [Related pubchem assays (depositor defined):AID1424, AID1448]. The format is functional.
The target in test [26] is Mucolipin-3 (Homo sapiens, UniProt Q8TDD5). The experiment in a line: Fluorescence counterscreen assay for […] agonists: dose response cell-based high-throughput screening assay to identify agonists of the transient receptor potential channel ML3 (TRPML3). [Related pubchem assays: 1424, 1448 ]. Format: functional.
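For Absolute IC50 (XBP1) in this document: confirmatory dose-response counter-screen serving a CHOP assay.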

Chain of Voltage-dependent T-type calcium channel subunit alpha-1H (O95180 whole entry): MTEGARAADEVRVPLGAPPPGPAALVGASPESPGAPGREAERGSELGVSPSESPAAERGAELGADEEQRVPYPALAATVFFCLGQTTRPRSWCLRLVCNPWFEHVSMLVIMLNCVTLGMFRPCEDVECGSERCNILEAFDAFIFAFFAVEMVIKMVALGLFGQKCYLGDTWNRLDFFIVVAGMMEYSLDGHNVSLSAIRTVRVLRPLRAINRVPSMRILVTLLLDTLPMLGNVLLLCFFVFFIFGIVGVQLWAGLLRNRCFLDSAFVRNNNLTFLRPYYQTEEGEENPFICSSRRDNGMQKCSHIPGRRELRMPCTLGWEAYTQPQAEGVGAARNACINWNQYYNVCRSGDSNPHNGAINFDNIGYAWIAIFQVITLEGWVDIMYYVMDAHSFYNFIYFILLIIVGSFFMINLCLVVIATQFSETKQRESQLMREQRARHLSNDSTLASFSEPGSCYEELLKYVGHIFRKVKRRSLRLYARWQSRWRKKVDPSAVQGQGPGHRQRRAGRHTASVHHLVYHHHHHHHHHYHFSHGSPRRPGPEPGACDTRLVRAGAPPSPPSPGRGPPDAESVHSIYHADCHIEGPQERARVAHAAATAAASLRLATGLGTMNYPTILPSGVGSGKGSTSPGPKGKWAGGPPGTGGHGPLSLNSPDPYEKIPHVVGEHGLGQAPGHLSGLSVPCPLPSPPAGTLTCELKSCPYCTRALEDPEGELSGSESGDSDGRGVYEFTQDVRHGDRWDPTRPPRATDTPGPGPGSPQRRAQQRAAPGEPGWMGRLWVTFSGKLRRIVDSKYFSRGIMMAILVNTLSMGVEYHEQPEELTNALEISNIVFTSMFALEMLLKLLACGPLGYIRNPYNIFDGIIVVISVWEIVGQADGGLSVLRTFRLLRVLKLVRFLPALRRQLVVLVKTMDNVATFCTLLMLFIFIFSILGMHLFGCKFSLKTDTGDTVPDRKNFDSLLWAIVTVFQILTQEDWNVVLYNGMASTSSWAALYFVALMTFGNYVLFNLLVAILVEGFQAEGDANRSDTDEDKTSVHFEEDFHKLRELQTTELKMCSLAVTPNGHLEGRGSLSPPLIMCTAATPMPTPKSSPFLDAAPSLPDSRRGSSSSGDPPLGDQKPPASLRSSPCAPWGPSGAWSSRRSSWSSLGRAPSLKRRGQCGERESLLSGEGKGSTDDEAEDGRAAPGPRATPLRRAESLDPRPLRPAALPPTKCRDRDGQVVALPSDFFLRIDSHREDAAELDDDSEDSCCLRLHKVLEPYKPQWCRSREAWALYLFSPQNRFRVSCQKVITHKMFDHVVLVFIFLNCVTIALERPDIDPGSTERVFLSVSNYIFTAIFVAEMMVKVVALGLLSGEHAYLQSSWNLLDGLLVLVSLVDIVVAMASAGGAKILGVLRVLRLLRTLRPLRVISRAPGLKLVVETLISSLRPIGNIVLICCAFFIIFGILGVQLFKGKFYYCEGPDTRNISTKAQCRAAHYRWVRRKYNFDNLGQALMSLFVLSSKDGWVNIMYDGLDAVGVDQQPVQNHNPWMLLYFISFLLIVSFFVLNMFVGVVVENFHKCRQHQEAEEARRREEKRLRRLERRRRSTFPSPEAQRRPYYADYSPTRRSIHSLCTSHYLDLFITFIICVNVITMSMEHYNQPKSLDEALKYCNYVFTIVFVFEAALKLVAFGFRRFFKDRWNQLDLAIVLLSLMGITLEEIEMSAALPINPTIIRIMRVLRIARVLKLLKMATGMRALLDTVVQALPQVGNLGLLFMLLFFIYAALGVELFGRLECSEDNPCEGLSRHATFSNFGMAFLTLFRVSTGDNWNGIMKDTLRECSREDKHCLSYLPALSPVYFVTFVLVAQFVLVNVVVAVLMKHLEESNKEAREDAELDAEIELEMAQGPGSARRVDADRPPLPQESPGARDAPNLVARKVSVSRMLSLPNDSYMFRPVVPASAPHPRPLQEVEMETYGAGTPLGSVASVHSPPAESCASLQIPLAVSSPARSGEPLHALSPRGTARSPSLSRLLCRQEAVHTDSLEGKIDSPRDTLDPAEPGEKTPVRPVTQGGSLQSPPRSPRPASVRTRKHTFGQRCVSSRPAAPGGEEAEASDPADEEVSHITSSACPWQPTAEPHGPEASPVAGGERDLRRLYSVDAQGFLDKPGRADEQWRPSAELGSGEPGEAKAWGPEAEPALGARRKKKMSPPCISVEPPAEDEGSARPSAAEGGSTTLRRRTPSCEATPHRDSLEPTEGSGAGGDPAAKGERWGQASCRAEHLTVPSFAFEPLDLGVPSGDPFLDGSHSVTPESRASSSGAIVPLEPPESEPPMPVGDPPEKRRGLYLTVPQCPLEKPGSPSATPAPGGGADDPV
Chain of X-box-binding protein 1 (P17861 whole entry): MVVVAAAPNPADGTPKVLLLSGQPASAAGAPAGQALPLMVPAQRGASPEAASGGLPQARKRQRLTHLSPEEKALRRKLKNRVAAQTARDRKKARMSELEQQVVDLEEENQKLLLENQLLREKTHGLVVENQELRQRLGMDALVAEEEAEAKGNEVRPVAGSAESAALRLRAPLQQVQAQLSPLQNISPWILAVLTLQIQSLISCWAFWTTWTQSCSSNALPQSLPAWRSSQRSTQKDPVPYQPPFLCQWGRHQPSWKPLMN
Chain of Nucleotide-binding oligomerization domain-containing protein 2 (Q9HC29 whole entry, the tested form may be a part): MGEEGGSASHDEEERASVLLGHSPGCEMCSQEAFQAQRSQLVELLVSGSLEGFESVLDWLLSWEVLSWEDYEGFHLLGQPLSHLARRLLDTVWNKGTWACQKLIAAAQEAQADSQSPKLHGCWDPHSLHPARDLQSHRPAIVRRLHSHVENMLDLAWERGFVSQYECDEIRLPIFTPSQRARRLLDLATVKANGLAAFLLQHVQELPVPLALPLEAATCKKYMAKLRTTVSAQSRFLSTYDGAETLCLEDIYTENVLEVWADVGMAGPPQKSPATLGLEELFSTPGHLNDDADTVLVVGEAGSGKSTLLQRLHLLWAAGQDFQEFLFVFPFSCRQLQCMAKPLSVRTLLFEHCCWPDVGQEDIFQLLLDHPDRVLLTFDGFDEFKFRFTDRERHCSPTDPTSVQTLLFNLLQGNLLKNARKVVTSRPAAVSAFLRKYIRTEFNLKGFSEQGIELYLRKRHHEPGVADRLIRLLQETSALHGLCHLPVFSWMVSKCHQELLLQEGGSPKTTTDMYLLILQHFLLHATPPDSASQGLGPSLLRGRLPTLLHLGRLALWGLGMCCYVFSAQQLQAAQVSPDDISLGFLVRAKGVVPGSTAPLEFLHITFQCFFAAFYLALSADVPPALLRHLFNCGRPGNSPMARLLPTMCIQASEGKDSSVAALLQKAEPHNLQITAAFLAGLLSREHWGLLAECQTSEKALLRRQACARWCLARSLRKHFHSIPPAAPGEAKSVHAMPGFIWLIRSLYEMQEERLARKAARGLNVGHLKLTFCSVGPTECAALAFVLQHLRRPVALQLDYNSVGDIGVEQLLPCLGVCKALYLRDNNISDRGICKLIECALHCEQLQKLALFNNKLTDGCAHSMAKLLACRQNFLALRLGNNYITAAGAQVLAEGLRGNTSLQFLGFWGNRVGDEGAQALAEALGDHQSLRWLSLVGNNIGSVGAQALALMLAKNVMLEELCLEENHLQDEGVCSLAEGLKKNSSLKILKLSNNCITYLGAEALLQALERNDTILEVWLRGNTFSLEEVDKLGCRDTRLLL
Chain of Glyceraldehyde-3-phosphate dehydrogenase (P04406 whole entry): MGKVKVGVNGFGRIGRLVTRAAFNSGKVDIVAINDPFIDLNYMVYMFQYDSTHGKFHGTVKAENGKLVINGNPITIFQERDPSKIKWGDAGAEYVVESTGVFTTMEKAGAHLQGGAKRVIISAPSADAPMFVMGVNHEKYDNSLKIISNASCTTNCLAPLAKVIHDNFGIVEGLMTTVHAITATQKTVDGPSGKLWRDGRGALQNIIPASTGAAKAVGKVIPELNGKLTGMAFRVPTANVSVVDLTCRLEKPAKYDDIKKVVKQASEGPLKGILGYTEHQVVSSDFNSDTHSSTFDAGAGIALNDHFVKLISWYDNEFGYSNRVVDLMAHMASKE
Chain of Eukaryotic translation initiation factor 4E (P63073 whole entry): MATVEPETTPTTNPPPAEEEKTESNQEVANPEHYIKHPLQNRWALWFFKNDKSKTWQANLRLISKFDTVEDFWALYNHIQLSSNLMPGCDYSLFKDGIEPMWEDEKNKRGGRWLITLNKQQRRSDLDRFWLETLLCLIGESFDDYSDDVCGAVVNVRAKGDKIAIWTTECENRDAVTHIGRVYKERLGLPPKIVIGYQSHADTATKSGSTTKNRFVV
Chain of DNA damage-inducible transcript 3 protein (P35639 whole entry): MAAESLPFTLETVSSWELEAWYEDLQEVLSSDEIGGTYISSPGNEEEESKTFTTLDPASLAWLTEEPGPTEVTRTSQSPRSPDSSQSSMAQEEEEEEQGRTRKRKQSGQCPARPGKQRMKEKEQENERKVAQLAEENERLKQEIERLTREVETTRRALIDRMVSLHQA
Chain of Intestinal-type alkaline phosphatase (P09923 whole entry): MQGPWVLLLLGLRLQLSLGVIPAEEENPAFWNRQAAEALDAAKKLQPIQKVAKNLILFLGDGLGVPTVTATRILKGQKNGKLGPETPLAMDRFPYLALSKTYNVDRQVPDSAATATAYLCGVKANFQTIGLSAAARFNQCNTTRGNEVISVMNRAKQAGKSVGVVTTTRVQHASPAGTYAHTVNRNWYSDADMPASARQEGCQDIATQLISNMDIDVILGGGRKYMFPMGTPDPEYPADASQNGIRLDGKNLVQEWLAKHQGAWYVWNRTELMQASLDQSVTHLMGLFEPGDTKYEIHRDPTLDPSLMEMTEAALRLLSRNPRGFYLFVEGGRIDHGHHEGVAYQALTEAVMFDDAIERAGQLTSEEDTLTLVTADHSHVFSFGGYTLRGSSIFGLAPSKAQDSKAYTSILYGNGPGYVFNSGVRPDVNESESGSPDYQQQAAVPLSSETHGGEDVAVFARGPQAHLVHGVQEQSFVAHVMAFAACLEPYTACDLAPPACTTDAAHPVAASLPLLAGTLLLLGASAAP

A word on the IC50: it is the midpoint of a concentration-inhibition curve. Turning to `COc1ccc2[nH]c(SCC(=O)c3ccc(O)c(O)c3)nc2c1`, the figures for the IC50 in test [1], in test [2] and in test [3] were 6.17 µM (active), 19.3 µM (active) and > 100 µM (not active), respectively.

`Cc1ccc(-n2c(N)c(C(N)=O)sc2=S)cc1`: the IC50 was 55.1 µM (active) in test [4] and > 64 µM (inactive) in [5].

As a reminder, the EC50 is the concentration needed to bring the measured effect to its halfway point. Consider `O=C(/C=C\c1ccco1)Nc1nc(-c2ccc3ccccc3c2)cs1`, for which the concentration for a half-maximal effect (EC50) is 7.52 µM (active) in test [6]; > 150 µM (not active) in test [9]; 73.7 µM (active) in [12]; > 20 µM (inactive) in test [14]; > 20 µM (inactive) in [15]. Further, the IC50 in test [7] was 3.88 µM (inactive); in [8], > 100 µM (inactive); in test [10] it was 7.24 µM (active); in [11] it was 3.56 µM (active); in test [13] it was > 20 µM (inactive).

Turning to `CCCCCCSc1nsc(NC(=O)CCC)n1`, the “Absolute IC50 (XBP1)” value in [16] came to 10 µM.

Consider `C[C@H](NC(=O)c1ccccc1Cl)C(=O)OC(C(=O)Nc1cc(C(F)(F)F)ccc1Cl)c1ccccc1` (stereo partly specified), for which the EC50 in test [17] is 4.07 µM (active).

Regarding `O=C(CN1C(=O)c2cccnc2Oc2ccc(Cl)cc21)NCCCc1ccccc1`, the IC50 in [7], in test [10], in test [11] and in [13] was > 20 µM (inactive) in each case. The EC50 in test [14] and in test [15] was > 20 µM (inactive) throughout.

With `COc1ccc(Cc2nc3ccccc3n2CC(=O)N/N=C/c2ccc(C)cc2O)cc1OC`, the “Absolute IC50 (CHOP)” value in test [18] was determined as 10 µM.

With `O=[N+]([O-])c1ccc(O)c(/C=N/Nc2ccccc2Cl)c1`, the “Absolute IC50 (XBP1)” value in [16] was determined as 10 µM. Besides, the “Absolute IC50 (CHOP)” value in test [18] worked out at 10 µM.

Take `CC1=NN(c2ccc(C(=O)O)cc2)C(=O)/C1=C/c1ccc(-c2ccccc2F)o1`: the EC50 in test [19] is > 120 µM (not active); in test [20], 21.3 µM (inactive); in test [21] it was > 120 µM (not active); in test [22], > 120 µM (not active).

Turning to `N#Cc1c(-c2ccccc2)nc(N2CCOCC2)[nH]c1=O`, the IC50 in test [23] was > 100 µM (inactive).

For the compound `C[N+](C)(C)c1ccc(/C=N/Nc2nc(Cl)c(C#N)c(Cl)c2Cl)cc1`, the EC50 in test [6], in [9] and in test [12] was > 150 µM (not active) throughout. The IC50 in test [5] is > 64 µM (inactive).

What is called AC50 is the concentration giving half of the maximal activity seen. On to `CC(C)(C)c1csc(NC(=O)Cn2c(=O)oc3ccccc32)n1`, for which, in test [24], the AC50 is > 100 µM (inactive). For the same compound, in test [17], the EC50 is 1.5 µM (active).

As to `COc1ccccc1N(CC(=O)NC(C)(C)C)S(=O)(=O)c1cccs1`, the EC50 was > 29.9 µM (inactive) in test [25] and > 29.9 µM (not active) in test [26].

On to `COc1cccc(S(=O)(=O)Nc2cccnc2)c1`, for which the IC50 in test [2] is > 100 µM (inactive); in test [3], > 100 µM (not active).
